Data as given in patent publication US6458838B1, “Adrenoleukodystrophy treatments” (Johns Hopkins University, priority 1999, dated 2002).

Columns and labels:
PMP70 = assay: Semi-quantitative RT-PCR in primary fibroblasts; type: cell-based, human; conditions: X-ALD or normal primary fibroblasts, 5 mM 4-PBA for 2 days
Method: (§1) Semi-quantitative RT-PCR was done on the mRNA isolated from these cells (FIG. 1). […] In addition, the expression of acyl-CoA oxidase (AOX), the rate-limiting enzyme in VLCFA β-oxidation, was not affected. Although previous studies have reported that ALDR mRNA was not detectable in fibroblasts by either northern or RT-PCR analyses, those RT-PCR studies used about 66 ng of CDNA; we used about 250 ng of cDNA.
(§2) Semi-quantitative RT-PCR analysis. Total RNA from tissue culture cells (10^6-10^7 cells/sample) was isolated using TRizol Reagent™ (Life Technologies), treated with DNase I (100-200 units in 40 mM HCI, 10 mM NaCl, 6 mM MgCl2, pH 7.3), incubated at 37° C. for 30 min, extracted with phenol/chloroform, and precipitated with isopropanol. cDNA was generated using MMLV reverse transcriptase (RT) (Life Technologies). PCR was done in the linear range of amplification (determined for each primerpair-cDNA combination). For each cDNA sample, a ‘cocktail’ was prepared, containing PCR buffer (Promega), 200 µM of each DNTP, 1.5 mM MgCl2, 250 ng cDNA, 0.25 U of Taq polymerase (Promega) and […]. The ‘cocktail’ was divided into separate tubes containing cDNA specific primers.
(§3) Primers. The PCR primers used are listed below. In the parentheses, h indicates human and m, mouse; this is followed by the gene name, product size and annealing temperature. For primer sequences, F is forward and R is reverse. […]

ALDP = assay: Semi-quantitative RT-PCR in primary fibroblasts; type: cell-based, human; conditions: normal primary fibroblasts, 5 mM 4-PBA for 2 days
Method: as §1, §2, §3

PMP69 = assay: Semi-quantitative RT-PCR in primary fibroblasts; type: cell-based, human; conditions: X-ALD or normal primary fibroblasts, 5 mM 4-PBA for 2 days
Method: as §1, §2, §3

[1] = test system: human control primary skin fibroblasts; assay: Immunofluorescence peroxisome counting; type: cell-based; conditions: 10 day exposure to 5 mM 4PBA
Description: Peroxisomes were made visible with immunofluorescence using a polyclonal antibody to the C-terminal tripeptide (SKL) peroxisome targeting signal 1 (PTS1), which is present in most peroxisomal matrix proteins. […] We counted the peroxisomes after 10 days of treatment (Table 3). Slides were scanned visually and cells categorized as having low, medium or high numbers of peroxisomes. For each cell line, the number of peroxisomes is the mean of three ‘low’, four ‘medium’ and three ‘high’ cells (Table 3). There was no difference between control cells and X-ALD cells in either the number of peroxisomes per cell or in the response to 4-PBA. […] The 2.4-fold increase in the number of peroxisomes per cell was statistically significant (P<0.0000001, two-tailed Student's t-test). Peroxisome numbers obtained with an antibody against a peroxisomal membrane protein (Pex14p) gave similar results (data not shown).
Immunofluorescence and peroxisome counting. […] The anti-SKL (PTSI) antibody was a gift from S. Gould and the anti-Pex11α antibody was a gift from S. Mihalik. To count peroxisomes, we photographed immunofluorescence-stained cells after focusing on the cell nucleus, and determined the peroxisome number per cell with the aid of a colon counter after projecting the slides to enlarge the image.

O=C(O)CCCc1ccccc1 [4-PBA, 4-Phenyl butyrate]
PMP70 expression level (PMP70): little, if any, effect | ALDP expression (mRNA) (ALDP): little, if any, effect | PMP69 expression level (PMP69): little, if any, effect | peroxisome number, Increase ([1]; Mean of four normal cell lines): 2.3 fold | peroxisome number, Treated ([1]; Mean of four normal cell lines): 939 ± 78 peroxisomes per cell | peroxisome number, Increase ([1]; cell line Normal GM 5565): 2.3 fold | peroxisome number, Treated ([1]; cell line Normal GM 5565): 961 ± 383 peroxisomes per cell | peroxisome number, Increase ([1]; cell line Normal GM 5659C): 2.3 fold | peroxisome number, Treated ([1]; cell line Normal GM 5659C): 907 ± 270 peroxisomes per cell | peroxisome number, Increase ([1]; cell line Normal GM 5756): 2.3 fold | peroxisome number, Treated ([1]; cell line Normal GM 5756): 852 ± 271 peroxisomes per cell | peroxisome number, Increase ([1]; cell line Normal GM 5757A): 2.4 fold | peroxisome number, Treated ([1]; cell line Normal GM 5757A): 1035 ± 338 peroxisomes per cell
